# Assay results from patent publication US9708314B2, “Heterocyclic amide compound” (NISSAN CHEMICAL INDUSTRIES, LTD., priority 2013, dated 2017).
# Tests used:
# Type in all cases: in vivo
# [1] = tested on: transplanted Oryza sativa; assay: Test Example 1: effect on crop, application before weed generation in submerged conditions; conditions: Seventeenth Table; for a: transplanted Oryza sativa (effect on crop grade): Application herbicide amount 320 g/ha; for a (transplanted Oryza sativa) effect on crop grade: application herbicide amount 320 g/ha
# In short: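 Pre-emergence application to water surface of submerged pots (4 cm depth, alluvial soil) on sowing day, with 2.5-leaf rice transplanted; emulsion diluted to g/ha rates. Grown in greenhouse at 25–30 °C; 0–5 herbicidal/crop-effect score after three weeks.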
# [2] = tested on: directly sowed Oryza sativa; assay: Test Example 3: effect on crop by application to foliage (Wagner pot, water depth 0.1-0.5 cm); conditions: Nineteenth Table, application to foliage
# In short: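 Visual 0–5 rating of herbicidal ratio, taken 3 weeks after foliar spray of a diluted emulsion formulation at rates expressed as g/ha. Plants had been sown in alluvial soil under 0.1–0.5 cm water and grown 14 days at 25–30 °C under glass before application.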
# Galium spurium = assay: Test Example 4: herbicidal effect by application to foliage (diluvial soil, plastic box); conditions: for herbicidal effect, Q (Galium spurium) / Q (Galium spurium) herbicidal effect grade: 320 g/ha; for Q (Galium spurium) herbicidal effect grade: foliage application
# In short: (§1)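 Plants were grown in sterilized diluvial soil in a greenhouse at 25-30° C for 14 days, then sprayed on stems and leaves with water-diluted emulsion formulation at set rates in g/ha. Weed control and crop injury were scored 3 weeks after treatment on a 0-5 herbicidal-ratio scale, from 0 (≤5%) to 5 (≥90%).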
# [3] = tested on: Beta vulgaris ssp. vulgaris; assay: Test Example 4: effect on crop by application to foliage (diluvial soil, plastic box); conditions: for effect on crop, f (Beta vulgaris ssp. vulgaris) / f (Beta vulgaris ssp. vulgaris) effect on crop grade: 320 g/ha; for f (Beta vulgaris ssp. vulgaris) effect on crop grade: foliage application
# In short: as §1
# Brassica campestris L. = assay: as above; conditions: for effect on crop, g (Brassica campestris L.) / g (Brassica campestris L.) effect on crop grade: 320 g/ha; for g (Brassica campestris L.) effect on crop grade: foliage application
# In short: as §1
# Glycine max = assay: as above; conditions: for effect on crop, c (Glycine max) / c (Glycine max) effect on crop grade: 320 g/ha; for c (Glycine max) effect on crop grade: foliage application
# In short: as §1
# Triticum aestivum = assay: as above; conditions: for effect on crop, e (Triticum aestivum) / e (Triticum aestivum) effect on crop grade: 320 g/ha; for e (Triticum aestivum) effect on crop grade: foliage application
# In short: as §1
# Zea mays = assay: as above; conditions: for effect on crop, b (Zea mays) / b (Zea mays) effect on crop grade: 320 g/ha; for b (Zea mays) effect on crop grade: foliage application
# In short: as §1
# [4] = tested on: directly sowed Oryza sativa; assay: as above; conditions: for effect on crop, d (directly sowed Oryza sativa) / d (directly sowed Oryza sativa) effect on crop grade: 320 g/ha; for d (directly sowed Oryza sativa) effect on crop grade: foliage application
# In short: as §1
# [5] = application herbicide amount 320 g/ha
# [6] = application to foliage, application herbicide amount 320 g/ha
SMILES,a: transplanted Oryza sativa (effect on crop grade) [1],"b (effect on crop grade) [2, 5]","herbicidal effect, Q (Galium spurium) (Galium spurium; application to foliage)","effect on crop, f (Beta vulgaris ssp. vulgaris) ([3]; application to foliage)","effect on crop, g (Brassica campestris L.) (Brassica campestris L.; application to foliage)","effect on crop, c (Glycine max) (Glycine max; application to foliage)","effect on crop, e (Triticum aestivum) (Triticum aestivum; application to foliage)","effect on crop, b (Zea mays) (Zea mays; application to foliage)","effect on crop, d (directly sowed Oryza sativa) ([4]; application to foliage)",Q (Galium spurium) herbicidal effect grade (Galium spurium),f (Beta vulgaris ssp. vulgaris) effect on crop grade [3],g (Brassica campestris L.) effect on crop grade (Brassica campestris L.),c (Glycine max) effect on crop grade (Glycine max),e (Triticum aestivum) effect on crop grade (Triticum aestivum),b (Zea mays) effect on crop grade (Zea mays),d (directly sowed Oryza sativa) effect on crop grade [4],also measured
Cn1nnnc1NC(=O)c1ccc(C(F)(F)F)n2c(N3CCOCC3)nnc12 [2-075],5 (Herbicidal ratio of 90% or more (almost completely withered)),5 (Herbicidal ratio of 90% or more (almost completely withered)),4 (Herbicidal ratio of 70% or more and less than 90%),5 (Herbicidal ratio of 90% or more (almost completely withered)),5 (Herbicidal ratio of 90% or more (almost completely withered)),3 (Herbicidal ratio of 40% or more and less than 70%),4 (Herbicidal ratio of 70% or more and less than 90%),5 (Herbicidal ratio of 90% or more (almost completely withered)),5 (Herbicidal ratio of 90% or more (almost completely withered)),–,–,–,–,–,–,–,–
CCS(=O)(=O)c1nnc2c(C(=O)Nc3nnnn3C)ccc(C(F)(F)F)n12 [2-038],4 (Herbicidal ratio of 70% or more and less than 90%),5 (Herbicidal ratio of 90% or more (almost completely withered)),–,–,–,–,–,–,–,5 (Herbicidal ratio of 90% or more (almost completely withered)),5 (Herbicidal ratio of 90% or more (almost completely withered)),5 (Herbicidal ratio of 90% or more (almost completely withered)),5 (Herbicidal ratio of 90% or more (almost completely withered)),5 (Herbicidal ratio of 90% or more (almost completely withered)),5 (Herbicidal ratio of 90% or more (almost completely withered)),5 (Herbicidal ratio of 90% or more (almost completely withered)),–
CC(C)c1nc2c(C(=O)Nc3nnnn3C)ccc(C(F)(F)F)n2n1 [7-002],–,0 (Herbicidal ratio of 5% or less (almost no effect)),3 (Herbicidal ratio of 40% or more and less than 70%),4 (Herbicidal ratio of 70% or more and less than 90%),3 (Herbicidal ratio of 40% or more and less than 70%),0 (Herbicidal ratio of 5% or less (almost no effect)),0 (Herbicidal ratio of 5% or less (almost no effect)),0 (Herbicidal ratio of 5% or less (almost no effect)),2 (Herbicidal ratio of 20% or more and less than 40%),–,–,–,–,–,–,–,a (transplanted Oryza sativa) effect on crop grade [1]: 1 (Herbicidal ratio of 5% or more and less than 20%)
CC(C)c1nnc2c(C(=O)Nc3nnnn3C)ccc(C(F)(F)F)n12 [2-003],4 (Herbicidal ratio of 70% or more and less than 90%),–,–,–,–,–,–,–,–,–,–,–,–,–,–,–,"b (effect on crop grade) ([2]; application herbicide amount 200 g/ha): 0 (Herbicidal ratio of 5% or less (almost no effect)); Q: herbicidal effect on Galium spurium (Galium spurium; [6]): 4 (Herbicidal ratio of 70% or more and less than 90%); f: effect on crop, Beta vulgaris ssp. vulgaris [3, 6]: 5 (Herbicidal ratio of 90% or more (almost completely withered)); g: effect on crop, Brassica campestris L. (Brassica campestris L.; [6]): 5 (Herbicidal ratio of 90% or more (almost completely withered)); d: effect on crop, Glycine max (Glycine max; [6]): 4 (Herbicidal ratio of 70% or more and less than 90%); e: effect on crop, Triticum aestivum (Triticum aestivum; [6]): 3 (Herbicidal ratio of 40% or more and less than 70%); c: effect on crop, Zea mays (Zea mays; [6]): 1 (Herbicidal ratio of 5% or more and less than 20%); b: effect on crop, directly sowed Oryza sativa [4, 6]: 4 (Herbicidal ratio of 70% or more and less than 90%)"
Cn1nnnc1NC(=O)c1ccc(C(F)(F)F)n2c(CS(C)(=O)=O)nnc12 [2-034],4 (Herbicidal ratio of 70% or more and less than 90%),5 (Herbicidal ratio of 90% or more (almost completely withered)),–,–,–,–,–,–,–,5 (Herbicidal ratio of 90% or more (almost completely withered)),5 (Herbicidal ratio of 90% or more (almost completely withered)),5 (Herbicidal ratio of 90% or more (almost completely withered)),3 (Herbicidal ratio of 40% or more and less than 70%),5 (Herbicidal ratio of 90% or more (almost completely withered)),5 (Herbicidal ratio of 90% or more (almost completely withered)),5 (Herbicidal ratio of 90% or more (almost completely withered)),–
CC(c1nnc2c(C(=O)Nc3nnnn3C)ccc(C(F)(F)F)n12)S(C)(=O)=O (stereo not drawn) [2-054],5 (Herbicidal ratio of 90% or more (almost completely withered)),5 (Herbicidal ratio of 90% or more (almost completely withered)),–,–,–,–,–,–,–,4 (Herbicidal ratio of 70% or more and less than 90%),5 (Herbicidal ratio of 90% or more (almost completely withered)),5 (Herbicidal ratio of 90% or more (almost completely withered)),5 (Herbicidal ratio of 90% or more (almost completely withered)),5 (Herbicidal ratio of 90% or more (almost completely withered)),5 (Herbicidal ratio of 90% or more (almost completely withered)),5 (Herbicidal ratio of 90% or more (almost completely withered)),–
Cn1nnnc1NC(=O)c1ccc(C(F)(F)F)n2c(S(C)(=O)=O)nnc12 [2-037],4 (Herbicidal ratio of 70% or more and less than 90%),5 (Herbicidal ratio of 90% or more (almost completely withered)),–,–,–,–,–,–,–,5 (Herbicidal ratio of 90% or more (almost completely withered)),5 (Herbicidal ratio of 90% or more (almost completely withered)),5 (Herbicidal ratio of 90% or more (almost completely withered)),5 (Herbicidal ratio of 90% or more (almost completely withered)),5 (Herbicidal ratio of 90% or more (almost completely withered)),5 (Herbicidal ratio of 90% or more (almost completely withered)),4 (Herbicidal ratio of 70% or more and less than 90%),–
CC(C)c1nnc2c(C(=O)Nc3nnnn3C)ccc(C(F)F)n12 [2-047],4 (Herbicidal ratio of 70% or more and less than 90%),3 (Herbicidal ratio of 40% or more and less than 70%),–,–,–,–,–,–,–,3 (Herbicidal ratio of 40% or more and less than 70%),5 (Herbicidal ratio of 90% or more (almost completely withered)),3 (Herbicidal ratio of 40% or more and less than 70%),0 (Herbicidal ratio of 5% or less (almost no effect)),3 (Herbicidal ratio of 40% or more and less than 70%),3 (Herbicidal ratio of 40% or more and less than 70%),3 (Herbicidal ratio of 40% or more and less than 70%),–
C#CCSc1nnc2c(C(=O)Nc3nnnn3C)ccc(C(F)(F)F)n12 [2-103],–,1 (Herbicidal ratio of 5% or more and less than 20%),4 (Herbicidal ratio of 70% or more and less than 90%),5 (Herbicidal ratio of 90% or more (almost completely withered)),3 (Herbicidal ratio of 40% or more and less than 70%),0 (Herbicidal ratio of 5% or less (almost no effect)),0 (Herbicidal ratio of 5% or less (almost no effect)),2 (Herbicidal ratio of 20% or more and less than 40%),4 (Herbicidal ratio of 70% or more and less than 90%),–,–,–,–,–,–,–,a (transplanted Oryza sativa) effect on crop grade [1]: 3 (Herbicidal ratio of 40% or more and less than 70%)
